# In patent publication US20150039274A1, “SYSTEM AND METHOD FOR PERSONALIZED METABOLIC MODELING” (Ramot at Tel-Aviv University Ltd., priority 2013, published 2015):
# System: RPMI-8226 cells
# Test: Cell proliferation of RPMI-8226 cells with doxycycline-inducible MLYCD shRNA, with or without N-acetyl-cysteine
# Format: cell-based, human
# Details: RPMI-8226 shRNA cells; 2 mM N-Acetyl Cysteine
# Method: HapMap cells (GM06997, CEPH/UTAH pedigree 13291) were obtained from Coriell Institute and RPMI-8226 and K562 cells were obtained from NCI-Frederick Cancer DCTD Tumor/Cell line Repository. Cells were grown in RPMI 1640 plus 10% fetal bovine serum (FBS) in the presence of 5% carbon dioxide. Cell count was determined using a CASY Cell Counter (Roche Applied Science). Where indicated, cells were incubated with 2 mM N-acetyl-cysteine.
# The viral supernatant for infection was obtained from the filtered growth media of the packaging cells HEK293T transfected with 3 μg psPAX, 1 μg pVSVG, 4 μg of shRNA contructs and 24 μl Lipofectamine 2000 (Life Technology) and the relevant shRNAs. 5×10^5 cells were then plated on 6-well plates and infected with the viral supernatant in the presence of 4 μg/mL polybrene. After two days, the medium was replaced with selection medium containing 2 μg/mL puromycin.
# The expression of the shRNA constructs was induced by incubating cells with 2 μg/mL Doxycyclin.
smiles,measurement,value
CC(=O)N[C@@H](CS)C(=O)O [N-Acetyl-cysteine],cell proliferation of MLYCD-deficient cells in the presence of antioxidant,restored the proliferative defects
